Laboratory results from ChEMBL document CHEMBL1201862, “PubChem BioAssay data set” (2004).
Calls of active or inactive are those of the source.

How the values were obtained:
[1] = Luminescence Cell-Based Dose Confirmation HTS to Identify Activators of 5'UTR Stem-Loop Driven Alpha-Synuclein mRNA Translation in H4 Neuroglioblastoma Cells. [Related pubchem assays: 1829 (Project Summary), 1814 (Primary HTS)]; format: functional
[2] = Luminescence Cell-Based Dose Response HTS to Identify Activators of Luciferase Translation or Activity in H4 […] Cells. [Related pubchem assays: 1829 (Project Summary), 1814 (Primary HTS)]; format: functional
H4 = experiment: Luminescence Cell-Based Dose Response HTS to Identify Activators of 5'UTR Stem-Loop Driven Prion Protein mRNA Translation in H4 Neuroglioblastoma Cells. [Related pubchem assays: 1829 (Project Summary), 1814 (Primary HTS)]; format: functional; conditions: Homo sapiens
Nonstructural protein 1 = Nonstructural protein 1 (Influenza A virus, UniProt Q194T2); format: functional, Influenza A virus (A/California/07/2009(H1N1))
Sequence of Nonstructural protein 1 (Q194T2 whole entry): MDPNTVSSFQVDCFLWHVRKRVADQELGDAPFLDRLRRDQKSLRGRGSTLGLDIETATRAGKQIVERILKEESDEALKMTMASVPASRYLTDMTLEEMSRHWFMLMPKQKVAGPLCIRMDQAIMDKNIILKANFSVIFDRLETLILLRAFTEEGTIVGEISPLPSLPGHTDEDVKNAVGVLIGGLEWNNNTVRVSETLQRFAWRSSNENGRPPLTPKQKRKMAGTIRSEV

Vero = experiment: cells; format: functional; conditions: Chlorocebus sabaeus
[3] = inhibitors of firefly luciferase expression or activity, dose response, H4 neuroglioma cells, luminescence (AID 1990); format: functional, cell-based
BJ [4] = experiment: cytotoxicity toward BJ-TERT fibroblasts, dose response, cell-based, RAS-independent, luminescence (AID 1933); format: functional; conditions: Homo sapiens
[5] = Luminescence Cell-Based Dose Response HTS to Identify Inhibitors of 5'UTR Stem-Loop Driven Prion Protein mRNA Translation in H4 Neuroglioblastoma Cells. [Related pubchem assays: 1827 (Project Summary), 1813 (Primary HTS)]; format: functional
BJ [6] = experiment: cells; format: functional, cell-based; conditions: Homo sapiens
BJ [7] = experiment: cytotoxicity toward BJ-TERT-LT-ST fibroblasts, dose response, cell-based, RAS-independent, luminescence (AID 1935); format: functional; conditions: Homo sapiens;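 also: BJ fibroblasts immortalized with TERT plus LT and ST oncogenes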
[8] = cytotoxicity toward DRD oncogenic fibroblasts, dose response, cell-based, non-viral oncogenic, luminescence (AID 1934); format: functional; conditions: Homo sapiens
[9] = cytotoxicity in HEK-293T cells, dose response, cytotoxicity control for TCR NF-kB inhibitor project, luminescence, T-cell screen hits (AID 489026); format: functional, cell-based;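 also: cells exposed to compound about 14 hours before the viability readout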
[10] = molecular target: Glucose-6-phosphate 1-dehydrogenase (Homo sapiens, UniProt P11413); experiment: human G6PD enzyme inhibitors, dose response, selectivity assay for P. falciparum G6PD inhibitor project, biochemical, fluorescence (AID 504792); format: functional
Sequence of Glucose-6-phosphate 1-dehydrogenase (P11413 whole entry): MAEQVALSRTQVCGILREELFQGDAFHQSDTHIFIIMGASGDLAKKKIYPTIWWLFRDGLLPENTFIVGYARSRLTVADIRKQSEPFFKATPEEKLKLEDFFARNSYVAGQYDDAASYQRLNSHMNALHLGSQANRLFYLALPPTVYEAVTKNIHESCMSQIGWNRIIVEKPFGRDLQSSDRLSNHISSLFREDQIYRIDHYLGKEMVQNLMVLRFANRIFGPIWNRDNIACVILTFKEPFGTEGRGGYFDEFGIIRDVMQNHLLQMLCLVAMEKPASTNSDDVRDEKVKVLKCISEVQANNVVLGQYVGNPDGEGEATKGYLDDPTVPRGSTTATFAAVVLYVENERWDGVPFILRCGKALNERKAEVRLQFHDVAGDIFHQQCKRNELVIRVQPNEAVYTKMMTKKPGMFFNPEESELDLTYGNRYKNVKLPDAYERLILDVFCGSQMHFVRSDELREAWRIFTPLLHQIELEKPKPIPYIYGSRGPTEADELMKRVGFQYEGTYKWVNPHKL

[11] = molecular target: T1, Rac GTPase-activating protein 1 (Homo sapiens, UniProt Q9H0H5); experiment: MgcRacGAP GTPase-activating activity inhibitors, confirmation, biochemical, ADP Hunter fluorescence, primary and confirmatory (AID 624330); format: functional
T1 sequence (Q9H0H5 whole entry): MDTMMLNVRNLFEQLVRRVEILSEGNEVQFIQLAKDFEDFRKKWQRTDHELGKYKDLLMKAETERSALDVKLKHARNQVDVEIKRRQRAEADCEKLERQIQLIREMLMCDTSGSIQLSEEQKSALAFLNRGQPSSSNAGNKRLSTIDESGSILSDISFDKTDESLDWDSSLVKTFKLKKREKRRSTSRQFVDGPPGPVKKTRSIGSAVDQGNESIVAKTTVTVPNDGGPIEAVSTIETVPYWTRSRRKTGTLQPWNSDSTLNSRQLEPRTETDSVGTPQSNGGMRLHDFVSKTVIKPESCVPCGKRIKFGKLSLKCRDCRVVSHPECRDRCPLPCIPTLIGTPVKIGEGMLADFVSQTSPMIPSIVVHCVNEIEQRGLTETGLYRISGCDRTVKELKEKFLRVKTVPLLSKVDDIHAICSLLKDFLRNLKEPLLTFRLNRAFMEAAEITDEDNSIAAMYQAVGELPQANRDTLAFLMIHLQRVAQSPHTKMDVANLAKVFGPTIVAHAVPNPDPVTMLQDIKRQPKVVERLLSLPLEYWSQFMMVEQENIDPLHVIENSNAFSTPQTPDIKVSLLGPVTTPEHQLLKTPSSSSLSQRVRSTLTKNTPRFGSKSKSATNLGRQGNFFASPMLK

[12] = molecular target: T2, High affinity choline transporter 1 (Homo sapiens, UniProt Q9GZV3); experiment: CHT inhibitors, dose response, cell-based, 5-point CRC, membrane potential dye (AID 504840); format: functional
T2 sequence (Q9GZV3 whole entry): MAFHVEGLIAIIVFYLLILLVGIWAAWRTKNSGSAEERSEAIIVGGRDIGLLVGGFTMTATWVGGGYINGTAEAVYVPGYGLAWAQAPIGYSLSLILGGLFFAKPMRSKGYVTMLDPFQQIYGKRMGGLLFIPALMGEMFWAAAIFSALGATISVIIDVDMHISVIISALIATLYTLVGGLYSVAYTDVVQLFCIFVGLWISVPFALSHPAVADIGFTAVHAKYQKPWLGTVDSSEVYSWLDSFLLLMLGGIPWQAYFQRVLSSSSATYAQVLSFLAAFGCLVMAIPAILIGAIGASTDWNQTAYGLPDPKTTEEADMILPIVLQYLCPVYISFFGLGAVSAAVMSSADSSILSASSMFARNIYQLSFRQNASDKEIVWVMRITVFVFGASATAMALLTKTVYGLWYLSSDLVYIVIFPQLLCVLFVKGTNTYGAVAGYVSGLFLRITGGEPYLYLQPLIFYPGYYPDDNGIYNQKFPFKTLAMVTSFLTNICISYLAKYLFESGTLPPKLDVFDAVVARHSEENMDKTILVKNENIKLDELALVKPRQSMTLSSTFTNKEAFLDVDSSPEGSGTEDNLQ

[13] = molecular target: Induced myeloid leukemia cell differentiation protein Mcl-1 (Homo sapiens, UniProt Q07820); format: functional
Sequence of Induced myeloid leukemia cell differentiation protein Mcl-1 (Q07820 whole entry): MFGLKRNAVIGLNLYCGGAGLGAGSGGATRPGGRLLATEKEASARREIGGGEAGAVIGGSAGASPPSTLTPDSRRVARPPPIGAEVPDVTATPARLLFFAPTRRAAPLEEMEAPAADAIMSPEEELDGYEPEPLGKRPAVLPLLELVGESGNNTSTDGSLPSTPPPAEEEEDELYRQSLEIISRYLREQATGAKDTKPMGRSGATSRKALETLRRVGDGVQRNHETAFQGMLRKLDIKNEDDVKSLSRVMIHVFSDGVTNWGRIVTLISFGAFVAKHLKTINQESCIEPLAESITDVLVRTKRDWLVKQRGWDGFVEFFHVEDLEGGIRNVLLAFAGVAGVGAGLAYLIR

[14] = molecular target: T3, Heat shock factor protein 1 (Mus musculus, UniProt P38532); experiment: inhibition of MG132-induced HSE-luciferase signal, confirmation, cell-based, NIH3T3, luminescence, dose retest (AID 2382); format: functional;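 also: NIH3T3 fibroblasts with HSF1-driven luciferase reporter stressed by proteasome inhibitor MG132; luminescence from HSF1-driven luciferase expression after 8 hours of MG132 stress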
T3 sequence (P38532 whole entry): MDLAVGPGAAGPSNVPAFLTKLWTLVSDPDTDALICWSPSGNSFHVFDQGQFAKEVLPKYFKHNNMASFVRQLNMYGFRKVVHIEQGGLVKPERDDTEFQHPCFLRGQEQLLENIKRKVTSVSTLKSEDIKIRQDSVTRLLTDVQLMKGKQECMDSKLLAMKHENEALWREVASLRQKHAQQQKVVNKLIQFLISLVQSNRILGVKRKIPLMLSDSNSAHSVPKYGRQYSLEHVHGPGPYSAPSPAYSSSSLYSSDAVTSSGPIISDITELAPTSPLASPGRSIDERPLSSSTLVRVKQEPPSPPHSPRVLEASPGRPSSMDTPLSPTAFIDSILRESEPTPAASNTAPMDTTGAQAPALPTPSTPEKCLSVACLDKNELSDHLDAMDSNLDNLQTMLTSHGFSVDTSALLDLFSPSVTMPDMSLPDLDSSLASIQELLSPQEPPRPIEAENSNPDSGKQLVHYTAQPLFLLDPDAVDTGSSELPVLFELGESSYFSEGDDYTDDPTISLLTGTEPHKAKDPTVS

[15] = molecular target: T4, Microphthalmia-associated transcription factor (Homo sapiens, UniProt O75030); experiment: TRPM1 promoter luciferase signal decrease, dose response, MITF inhibitor project, cell-based, SK-MEL-5, cherry-picked, set 3 (AID 493073); format: functional
T4 sequence (O75030 whole entry): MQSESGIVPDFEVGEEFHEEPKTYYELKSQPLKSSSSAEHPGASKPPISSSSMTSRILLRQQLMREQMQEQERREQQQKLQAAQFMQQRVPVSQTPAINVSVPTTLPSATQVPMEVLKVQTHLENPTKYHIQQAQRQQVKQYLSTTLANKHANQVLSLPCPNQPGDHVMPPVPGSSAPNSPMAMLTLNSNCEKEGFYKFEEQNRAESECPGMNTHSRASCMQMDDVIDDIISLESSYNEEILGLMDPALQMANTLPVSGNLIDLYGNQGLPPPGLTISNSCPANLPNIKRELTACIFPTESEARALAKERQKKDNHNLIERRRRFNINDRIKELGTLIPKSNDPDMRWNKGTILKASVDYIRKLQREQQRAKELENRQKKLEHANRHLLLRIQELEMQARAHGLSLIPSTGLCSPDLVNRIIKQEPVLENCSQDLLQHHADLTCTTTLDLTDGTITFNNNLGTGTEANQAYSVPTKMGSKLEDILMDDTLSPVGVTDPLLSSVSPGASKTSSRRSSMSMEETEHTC

CCCN1C(=O)/C(=C2\SC(N3CCCCC3)=NC2=O)c2ccccc21
EC50 [1]: 15.2 µM (active)
EC50 [2]: 64.2 µM (active)
EC50 (H4): > 120 µM (not active)
IC50 (Nonstructural protein 1): 28.5 µM (active)

COc1cc(C(=O)N/N=C/c2cccc(Oc3ccccc3)c2)ccc1O
CC50 (Vero): > 25 µM (active)

O=C(CNC(=O)c1ccco1)N=Nc1c(O)n(CCc2ccccc2)c2ccccc12
EC50 [3]: 12.2 µM (active)
EC50 (BJ [4]): 3.21 µM (active)
EC50 [5]: > 120 µM (not active)
EC50 (BJ [6]): 17.7 µM (active)
EC50 (BJ [7]): 1.45 µM (active)
EC50 [8]: 2.05 µM (active)
IC50 [9]: > 80 µM (inactive)
CC50 (Vero): 2.46 µM (active)

COCc1cc(O)n2nc(C(C)(C)C)cc2n1
IC50 [10]: > 80 µM (inactive)

COc1cc(N)c2ncccc2c1OC
IC50 [10]: > 80 µM (inactive)
IC50 [11]: 56.3 µM (active)

CCn1c(SCc2nc(-c3ccc(Cl)cc3)no2)nnc1-c1ccco1
IC50 [12]: 15.2 µM (active)

Cc1ccc(N2C(=O)/C(=C\NNc3ccc(S(=O)(=O)N4CCOCC4)cc3[N+](=O)[O-])c3ccccc3C2=O)c(C)c1
IC50 [13]: 1.8 µM (not active)
IC50 (Nonstructural protein 1): 8.94 µM (active)
IC50 [12]: 12.3 µM (active)

CC/C(=C(/CC)c1ccc(O)cc1)c1ccc(O)cc1 [DIETHYLSTILBESTROL]
IC50 [12]: 12.6 µM (active)

COc1cc(-c2noc(C)c2-c2ccc3[nH]ccc3c2)cc(OC)c1OC
IC50 [9]: 32.5 µM (inactive)

CC(C)c1ccc(/C=N/Nc2ccc(C(=O)O)cc2)cc1
EC50 [14]: < 0.16 µM (active)
IC50 [9]: > 80 µM (inactive)
AC50 [15]: 3.53 µM (active)
